Reference: patent US20170020909A1, “METHODS OF TREATING GLAUCOMA USING AMP-ACTIVATED PROTEIN KINASE (AMPK) ACTIVATORS” (Massachusetts Eye and Ear Infirmary, priority 2014, published 2017)

How the values were obtained:
[1] = system: Acetyl-CoA carboxylase (ACC); assay: Time course immunoblot of p-ACC/total ACC in primary human TM cell lysates; assay type: cell-based; details: 0.5 mM AICAR, human TM cells
Description: Primary human trabecular meshwork (TM) cells were isolated, in accordance with the Declaration of Helsinki, and maintained in culture as described previously.^63 Independent primary human TM cell lines were generated from donors ranging in age from 35 to 72 years and no known history of ocular disease. Cell cultures were maintained, unless otherwise stated, in Dulbecco's modified eagle medium (Life Technologies, Grand Island, N.Y.) containing 20% fetal bovine serum, 1% L-glutamine (2 mM), and gentamicin (0.1 mg/ml) at 37° C. in a 10% CO2 atmosphere. Only TM cells from third through fifth passage were used. […]
At the conclusion of each experiment for matricellular and ECM protein detection, conditioned media (CM) from TM cell cultures was harvested and centrifuged at 5000 rpm for 10 minutes at 4° C. The supernatant was then concentrated (Amicon Ultra-4 Filter Unit, 10 kDa; Millipore, Milford, Mass.), and protein content quantified using the DC Protein Assay kit adhering to manufacturer's protocols (Bio-Rad, Hercules, Calif.). […] Samples were then centrifuged at 14,000 rpm for 15 minutes at 4° C. and protein content quantified. […] The membranes were then washed three times with 1×TBS-T, scanned, and integrated band intensities were calculated using an infrared imaging system (Odyssey; Li-Cor, Lincoln, Nebr.). […]

AMPKα = assay: Time course immunoblot of p-AMPKα (Thr172)/total AMPKα in primary human TM cell lysates; assay type: cell-based; details: 0.5 mM AICAR, human TM cells
Description: Primary human trabecular meshwork (TM) cells were isolated, in accordance with the Declaration of Helsinki, and maintained in culture as described previously.^63 Independent primary human TM cell lines were generated from donors ranging in age from 35 to 72 years and no known history of ocular disease. Cell cultures were maintained, unless otherwise stated, in Dulbecco's modified eagle medium (Life Technologies, Grand Island, N.Y.) containing 20% fetal bovine serum, 1% L-glutamine (2 mM), and gentamicin (0.1 mg/ml) at 37° C. in a 10% CO2 atmosphere. Only TM cells from third through fifth passage were used. All experiments were performed using at least three different primary human TM cell lines.
At the conclusion of each experiment for matricellular and ECM protein detection, conditioned media (CM) from TM cell cultures was harvested and centrifuged at 5000 rpm for 10 minutes at 4° C. The supernatant was then concentrated (Amicon Ultra-4 Filter Unit, 10 kDa; Millipore, Milford, Mass.), and protein content quantified using the DC Protein Assay kit adhering to manufacturer's protocols (Bio-Rad, Hercules, Calif.). For AMPK protein detection, cells were lysed for 3 minutes on ice with cold 1×RIPA buffer containing 0.5% Aprotinin, 0.1% EDTA, 1% EGTA, 0.5% PMSF, and 0.01% Leupeptin. Samples were then centrifuged at 14,000 rpm for 15 minutes at 4° C. and protein content quantified. In all experiments, equal amounts of protein were treated with 6× reducing buffer and boiled for 5 minutes. Samples were then electrophoresed in 10% SDS-polyacrylamide gels, alongside a pre-stained protein marker (Cell Signaling Technology Inc., Danvers, Ma). For conditioned media loading control, the resultant gels were stained with 0.1% Coomassie Brilliant Blue G-250 (Bio-Rad, Hercules Calif.) for 3 hours and were destained with fixing/destaining solution until clear bands were visible and contrasted well with the true blue background. Otherwise, proteins were transferred to nitrocellulose membranes (0.45-μm pore size; Invitrogen). […] The membranes were then washed three times with 1×TBS-T, scanned, and integrated band intensities were calculated using an infrared imaging system (Odyssey; Li-Cor, Lincoln, Nebr.). […]

For `NC(=O)c1ncn([C@@H]2O[C@H](CO)[C@@H](O)[C@H]2O)c1N` [AICAR, 5-Aminoimidazole-4-carboxamide riboside], which “peak increase of phospho-total ACC ratio” value ([1]; at 6 hours) is on record?
The value was 6.6 fold.

What about the “change of phospho-total ACC ratio” value ([1]; within 15 minutes) of the same compound?
Its value is “increased by a statistically significant degree”.

And the “peak increase of phospho-total AMPK ratio” value (AMPKα; at 2 hours)?
Its value is “greater than 2 fold”.

And the “increase of phospho-total AMPK ratio, normalized to the zero time point” value (AMPKα; within 1 hour)?
The value was 77%.
